The subject of one experiment is S. aureus strain 4-173. The settings on record: broth microdilution, triplicate; isolate 4-173, no resistance profile listed. From the text:
(§1) The bacterial strains used in this study included S. aureus ATCC 29213 and ATCC 43300, B. subtilis ATCC […], E. coli ATCC 25922, P. aeruginosa ATCC 27853, and S. enterica serovar Typhimurium ATCC 14028, all of which were purchased from Cedarlane, Canada. Additionally, a collection of 19 S. aureus strains, ranging from antibiotic-sensitive to multidrug-resistant, and originating from clinical intramammary infections (IMI), was selected from the Mastitis Pathogen Culture Collection of the Canadian Bovine Mastitis Research Network (Université de Montréal, St-Hyacinthe, QC, Canada). These strains, previously used in other studies, were also included in this work. S. aureus ATCC 29213 and B. subtilis ATCC 6633 were cultured in Tryptic Soy Broth (TSB) (Difco^TM, Becton, Dickenson & Company, Spark, MD, USA). E. coli ATCC 25922 and P. aeruginosa ATCC 27853 were grown in Luria–Bertani (LB) broth (Fisher Scientific, Fair Lawn, NJ, USA). S. enterica serovar Typhimurium ATCC 14028 was propagated in Nutrient Broth (NB) (Oxoid, Basingstoke, UK). All bacterial cultures were incubated overnight at 37 °C before use and during the performance of assays.
(§2) MIC assays were performed using the broth microdilution method in 96-well plates. Analogs were serially diluted two-fold from stock solutions. The plates were incubated overnight at 37 °C and bacterial growth was monitored by measuring the absorbance at 595 nm over 18–20 h and the assay was performed in triplicate.
For orientation: Broth dilution looks for growth in wells or tubes with falling amounts of substance.

The next experiment relates to S. aureus strain 4-162. The settings on record: broth microdilution, triplicate; isolate 4-162, no resistance profile listed.
Source text: as §1, §2

Another experiment deals with S. aureus strain 4-131. Particulars: broth microdilution, triplicate; isolate 4-131, no resistance profile listed.
Source text: as §1, §2

Another experiment concerns S. aureus strain 4-172. Particulars: broth microdilution, triplicate; isolate 4-172, resistance PEN-AMC-CEF-CTX-FOX.
Source text: as §1, §2

In the next experiment the test system is S. aureus strain 4-144. The settings on record: broth microdilution, triplicate; isolate 4-144, resistance PEN-AMC-CEF-CTX-FOX-CIP-CHL-ERY-TET.
Source text: as §1, §2

Another experiment relates to S. aureus strain 4-145. Particulars: broth microdilution, triplicate; isolate 4-145, no resistance profile listed.
Source text: as §1, §2

The test system of the next experiment is S. aureus strain 4-156. Particulars: broth microdilution, triplicate; isolate 4-156, no resistance profile listed.
Source text: as §1, §2

Another experiment deals with S. aureus strain 4-121. The settings on record: broth microdilution, triplicate; isolate 4-121, no resistance profile listed.
Source text: as §1, §2

In a further experiment the test system is S. aureus strain 4-133. Particulars: broth microdilution, triplicate; isolate 4-133, resistance PEN-CEF-CTX-FOX-CIP-CHL-KAN-GEN.
Source text: as §1, §2

Another experiment deals with S. aureus strain A-165. The settings on record: broth microdilution, triplicate; isolate A-165, resistance PEN-CEF-CTX-FOX-CIP-CC-KAN-GEN-STR-P/N.
Source text: as §1, §2

The test system of the next experiment is S. aureus strain 4-134. Particulars: broth microdilution, triplicate; isolate 4-134, resistance PEN-VAN-CEF-CTX-FOX-ERY-CC-TET-KAN-GEN-STR.
Source text: as §1, §2

A further experiment relates to S. aureus strain 4-153. Particulars: broth microdilution, triplicate; isolate 4-153, no resistance profile listed.
Source text: as §1, §2

Another experiment concerns S. aureus strain 4-170. The settings on record: broth microdilution, triplicate; isolate 4-170, no resistance profile listed.
Source text: as §1, §2

The subject of the next experiment is S. aureus strain 4-138. Particulars: broth microdilution, triplicate; isolate 4-138, no resistance profile listed.
Source text: as §1, §2

The subject of a further experiment is S. aureus strain 4-157. Particulars: broth microdilution, triplicate; isolate 4-157, no resistance profile listed.
Source text: as §1, §2

The test system of another experiment is S. aureus strain 4-159. The settings on record: broth microdilution, triplicate; isolate 4-159, no resistance profile listed.
Source text: as §1, §2

Another experiment relates to S. aureus strain 4-140. Particulars: broth microdilution, triplicate; isolate 4-140, resistance TET.
Source text: as §1, §2

For the next experiment, the system named is S. aureus strain 4-139. The settings on record: broth microdilution, triplicate; isolate 4-139, resistance PEN-ERY-CC-TET-KAN.
Source text: as §1, §2

The structures appear in SMILES notation. In brackets after ≈: the same amount, converted by molar mass. Non-standard residues stand in square brackets, D forms with d. Residues, ends and D or L forms follow the SMILES beside them. *: point of attachment. Tetradecanoyl(3R-OH) = CCCCCCCCCCC[C@@H](O)CC(=O)*; Tetradecanoyl(3S-OH) = CCCCCCCCCCC[C@H](O)CC(=O)* A value given as a limit tells only on which side of the number the result lay.

The source of these data is article PMC12024397, “Structure–Activity Study of the Antimicrobial Lipopeptide Humimycin A and Screening Against Multidrug-Resistant Staphylococcus aureus” (Antibiotics, 2025).

For orientation: MIC means the lowest concentration that inhibits growth of the organism. Read a low MIC as greater potency.

On to `CCCCCCCCCCC[C@@H](O)CC(=O)N[C@@H](Cc1c[nH]c2ccccc12)C(=O)N[C@@H](CO)C(=O)N[C@H](Cc1c[nH]c2ccccc12)C(=O)N[C@@H](Cc1ccccc1)C(=O)N[C@@H](C(=O)N[C@H](C(=O)N[C@H](C(=O)O)C(C)C)C(C)C)[C@H](C)O` [12R] ({Tetradecanoyl(3R-OH)}-WS[dW]F[dT]VV-OH), for which the MIC is on record as 8 µg/mL (≈ 6.95 µM) against S. aureus strain 4-173; more than 256 µg/mL in the experiment on S. aureus strain 4-162; more than 256 µg/mL against S. aureus strain 4-131; 8 µg/mL (≈ 6.95 µM) against S. aureus strain 4-172; 8 µg/mL (≈ 6.95 µM) in the experiment on S. aureus strain 4-144; 16 µg/mL (≈ 13.9 µM) with S. aureus strain 4-145. In addition, the MIC is reported as 4 µg/mL (≈ 3.48 µM) in the experiment on S. aureus strain 4-156; 32 µg/mL (≈ 27.8 µM) against S. aureus strain 4-121; 256 µg/mL (≈ 223 µM) with S. aureus strain 4-133; 256 µg/mL (≈ 223 µM) in the experiment with S. aureus strain A-165; more than 256 µg/mL against S. aureus strain 4-134; 16 µg/mL (≈ 13.9 µM) against S. aureus strain 4-153. Besides, the minimum inhibitory concentration (MIC) with S. aureus strain 4-170 stood at 4 µg/mL (≈ 3.48 µM); against S. aureus strain 4-138, 4 µg/mL (≈ 3.48 µM); in the experiment with S. aureus strain 4-157 it was 16 µg/mL (≈ 13.9 µM); in the experiment with S. aureus strain 4-159 it was 8 µg/mL (≈ 6.95 µM); in the experiment with S. aureus strain 4-140 it was 8 µg/mL (≈ 6.95 µM); against S. aureus strain 4-139, 4 µg/mL (≈ 3.48 µM).

On to `CCCCCCCCCCC[C@H](O)CC(=O)N[C@@H](Cc1c[nH]c2ccccc12)C(=O)N[C@@H](CO)C(=O)N[C@H](Cc1c[nH]c2ccccc12)C(=O)N[C@@H](Cc1ccccc1)C(=O)N[C@@H](C(=O)N[C@H](C(=O)N[C@H](C(=O)O)C(C)C)C(C)C)[C@H](C)O` [12S] ({Tetradecanoyl(3S-OH)}-WS[dW]F[dT]VV-OH), for which the minimal inhibitory concentration (MIC) is listed as 16 µg/mL (≈ 13.9 µM) in the experiment on S. aureus strain 4-173; more than 256 µg/mL against S. aureus strain 4-162; more than 256 µg/mL in the experiment on S. aureus strain 4-131; 8 µg/mL (≈ 6.95 µM) in the experiment with S. aureus strain 4-172; 16 µg/mL (≈ 13.9 µM) with S. aureus strain 4-144; 32 µg/mL (≈ 27.8 µM) with S. aureus strain 4-145. Further, the minimal inhibitory concentration (MIC) with S. aureus strain 4-156 was 8 µg/mL (≈ 6.95 µM); in the experiment on S. aureus strain 4-121 it was 32 µg/mL (≈ 27.8 µM); against S. aureus strain 4-133 it was 256 µg/mL (≈ 223 µM); with S. aureus strain A-165, 256 µg/mL (≈ 223 µM); with S. aureus strain 4-134 it was more than 256 µg/mL; against S. aureus strain 4-153 it was 16 µg/mL (≈ 13.9 µM). The MIC came to 8 µg/mL (≈ 6.95 µM) in the experiment on S. aureus strain 4-170; 4 µg/mL (≈ 3.48 µM) with S. aureus strain 4-138; 16 µg/mL (≈ 13.9 µM) with S. aureus strain 4-157; 16 µg/mL (≈ 13.9 µM) in the experiment on S. aureus strain 4-159; 16 µg/mL (≈ 13.9 µM) in the experiment on S. aureus strain 4-140; 8 µg/mL (≈ 6.95 µM) with S. aureus strain 4-139.

As for `CCCCCCCCCCC[C@@H](O)CC(=O)N[C@@H](Cc1c[nH]c2ccccc12)C(=O)N[C@@H](CO)C(=O)N[C@H](Cc1c[nH]c2ccccc12)C(=O)N[C@@H](Cc1ccccc1)C(=O)N[C@@H](C(=O)N[C@@H](C)C(=O)N[C@H](C(=O)O)C(C)C)[C@H](C)O` [13R] ({Tetradecanoyl(3R-OH)}-WS[dW]F[dT]AV-OH), the MIC against S. aureus strain 4-173 is 8 µg/mL (≈ 7.13 µM); with S. aureus strain 4-162, more than 256 µg/mL; against S. aureus strain 4-131, more than 256 µg/mL; against S. aureus strain 4-172, 8 µg/mL (≈ 7.13 µM); against S. aureus strain 4-144, 8 µg/mL (≈ 7.13 µM); against S. aureus strain 4-145, 16 µg/mL (≈ 14.3 µM). For the same compound, the MIC in the experiment with S. aureus strain 4-156 is 16 µg/mL (≈ 14.3 µM); against S. aureus strain 4-121 it was 256 µg/mL (≈ 228 µM); against S. aureus strain 4-133, more than 256 µg/mL; against S. aureus strain A-165 it was more than 256 µg/mL; in the experiment with S. aureus strain 4-134, more than 256 µg/mL; with S. aureus strain 4-153 it was 32 µg/mL (≈ 28.5 µM). The minimal inhibitory concentration (MIC) against S. aureus strain 4-170 worked out at 8 µg/mL (≈ 7.13 µM); in the experiment on S. aureus strain 4-138, 16 µg/mL (≈ 14.3 µM); against S. aureus strain 4-157 it was 32 µg/mL (≈ 28.5 µM); in the experiment on S. aureus strain 4-159, 16 µg/mL (≈ 14.3 µM); with S. aureus strain 4-140 it was 16 µg/mL (≈ 14.3 µM); with S. aureus strain 4-139 it was 8 µg/mL (≈ 7.13 µM).

As to `CCCCCCCCCCC[C@H](O)CC(=O)N[C@@H](Cc1c[nH]c2ccccc12)C(=O)N[C@@H](CO)C(=O)N[C@H](Cc1c[nH]c2ccccc12)C(=O)N[C@@H](Cc1ccccc1)C(=O)N[C@@H](C(=O)N[C@@H](C)C(=O)N[C@H](C(=O)O)C(C)C)[C@H](C)O` [13S] ({Tetradecanoyl(3S-OH)}-WS[dW]F[dT]AV-OH), the minimal inhibitory concentration (MIC) in the experiment on S. aureus strain 4-173 is given as 8 µg/mL (≈ 7.13 µM); in the experiment with S. aureus strain 4-162, more than 256 µg/mL; in the experiment with S. aureus strain 4-131 it was more than 256 µg/mL; with S. aureus strain 4-172, 8 µg/mL (≈ 7.13 µM); against S. aureus strain 4-144, 16 µg/mL (≈ 14.3 µM); in the experiment with S. aureus strain 4-145, 32 µg/mL (≈ 28.5 µM). The MIC is given as 8 µg/mL (≈ 7.13 µM) against S. aureus strain 4-156; 256 µg/mL (≈ 228 µM) against S. aureus strain 4-121; more than 256 µg/mL against S. aureus strain 4-133; more than 256 µg/mL in the experiment with S. aureus strain A-165; more than 256 µg/mL in the experiment with S. aureus strain 4-134; 32 µg/mL (≈ 28.5 µM) against S. aureus strain 4-153. The MIC in the experiment on S. aureus strain 4-170 stood at 8 µg/mL (≈ 7.13 µM); in the experiment on S. aureus strain 4-138, 16 µg/mL (≈ 14.3 µM); against S. aureus strain 4-157, 32 µg/mL (≈ 28.5 µM); against S. aureus strain 4-159 it was 8 µg/mL (≈ 7.13 µM); with S. aureus strain 4-140, 16 µg/mL (≈ 14.3 µM); in the experiment on S. aureus strain 4-139, 8 µg/mL (≈ 7.13 µM).
